Laboratory results reported in patent US12552753B2, “Methods and compositions for targeting Tregs using CCR8 inhibitors” (Nanjing Immunophage Biomedical Co., Ltd., priority 2020, dated 2026).
Structures can show the parent of a compound that is named as a salt.

Each molecule was assayed against CCR8 (Homo sapiens, UniProt P51685) (assay: Tango assay (Tango-CCR8-Gal4-CHO-K1 cells, CCL1-stimulated, ONE-Glo luminescence)). Conditions: Tango Assay IC50, Inhibition of CCR8 Tango cell in vitro.
Chain of CCR8 (P51685 whole entry, the tested form may be a part): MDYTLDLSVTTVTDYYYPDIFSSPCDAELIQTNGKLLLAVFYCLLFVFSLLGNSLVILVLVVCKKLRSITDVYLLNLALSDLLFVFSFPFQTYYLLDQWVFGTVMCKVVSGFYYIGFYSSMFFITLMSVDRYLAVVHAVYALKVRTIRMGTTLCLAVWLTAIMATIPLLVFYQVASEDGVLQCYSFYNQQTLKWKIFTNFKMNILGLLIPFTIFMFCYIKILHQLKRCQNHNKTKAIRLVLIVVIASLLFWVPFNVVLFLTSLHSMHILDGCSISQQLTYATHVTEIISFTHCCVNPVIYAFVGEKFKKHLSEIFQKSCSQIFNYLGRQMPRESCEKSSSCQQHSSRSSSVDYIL
Method: The Tango cell line was used to monitor antagonists-mediated receptor inactivation.
Tango cells (Tango-CCR8-Gal4-CHO-K1 cells constructed by Genomeditech) were passaged in complete medium (F12K, 10% FBS, 1% penicillin-streptomycin, 4 μg/ml puromycin, 4 μg/ml blasticidin and 100 μg/ml hygromycin) in incubator (37° C., 5% CO2).
Twenty-four hours before the seed, cells were cultured in 10 or 15 cm dish at a density of 30% confluence in culture medium (F12K, 10% FBS, 1% penicillin-streptomycin).
Cells were suspended in starving medium (F12K, 1% FBS, 1% penicillin-streptomycin) before being seeded into black/clear 96 wells (1×10^4 cells/70 μl/well) and incubated for 6 hours (37° C., 5% CO2). Different concentration of compound, dissolved in DMSO, was into the 96-well plates, with 50 μl in each well, and incubation continued for 1 hour at 37° C.
After the incubation, the medium was removed and the 96-well plate was put in −80° C. freezer for an hour or longer. The plate and the ONE-Glo reagent (Promega, Catalog Number: E6110) which was frozen in −80° C., were taken out and rewarmed to room temperature. The ONE-Glo working reagent was prepared by mixing ONE-Glo reagent with F12K (no FBS) (1:2), and 40 μl ONE-Glo working reagent was added into each well. After incubating for 10 minutes at room temperature, the plate was read using microplate luminescence reader at 560 nm.
The microplate reader records luminescence in relative luminescence units (RLU).

Q: `Cc1ccccc1C(=O)Nc1ccc(S(=O)(=O)Nc2ccc3c(c2)N(C(=O)CN(C)C)CC3)c2ccccc12` [Compound 36, N-(4-(N-(1-(2-(dimethylamino)acetyl)indolin-6-yl)sulfamoyl)naphthalen-1-yl)-2-methylbenzamide] was tested. Which IC50 did it give?
A: > 10000 nM

Q: `Cc1ccccc1C(=O)Nc1ccc(S(=O)(=O)Nc2ccc3c(c2)CN(C(=O)CN(C)C)C3)c2ccccc12` [Compound 37, N-(4-(N-(2-(2-(dimethylamino)acetyl)isoindolin-5-yl)sulfamoyl)naphthalen-1-yl)-2-methylbenzamide] was tested. Which IC50 did it give?
A: > 10000 nM

Q: With `Cc1ccccc1C(=O)Nc1ccc(S(=O)(=O)N(C)c2ccc3c(c2)N(C(=O)CN(C)C)CC3)c2ccccc12` [Compound 38, N-(4-(N-(1-(2-(dimethylamino)acetyl)indolin-6-yl)-N-methylsulfamoyl)naph-thalen-1-yl)-2-methylbenzamide] as the molecule, how does the IC50 read?
A: 1680 nM

Q: Which IC50 does the source give for `COc1cc2c(cc1NS(=O)(=O)c1ccc(NC(=O)c3ccccc3C)c3ccccc13)N(C(C)=O)CC2` [Compound 39, N-(4-(N-(1-acetyl-5-methoxyindolin-6-yl)sulfamoyl)naphthalen-1-yl)-2-methylbenzamide] here?
A: > 10000 nM

Q: How did the IC50 turn out when `CC(=O)N1CC(C)(C)c2ccc(NS(=O)(=O)c3ccc(NC(=O)c4ccccc4C)c4ccccc34)cc21` [Compound 40, N-(4-(N-(1-acetyl-3,3-dimethylindolin-6-yl)sulfamoyl)naphthalen-1-yl)-2-methylbenzamide] was run?
A: > 10000 nM

Q: How did the IC50 turn out when `Cc1ccccc1C(=O)Nc1ccc(S(=O)(=O)Nc2ccc3c(c2)CN(C(=O)CN(C)C)CC3)c2ccccc12` [Compound 41, N-(4-(N-(2-(2-(dimethylamino)acetyl)-1,2,3,4-tetrahydroisoquinolin-7-yl)sulfamoyl)naphthalen-1-yl)-2-methylbenzamide] was run?
A: > 10000 nM

Q: With `Cc1ccccc1C(=O)Nc1ccc(S(=O)(=O)Nc2ccc3c(c2)CCN(C(=O)CN(C)C)C3)c2ccccc12` [Compound 42, N-(4-(N-(2-(2-(dimethylamino)acetyl)-1,2,3,4-tetrahydroisoquinolin-6-yl)sulfamoyl)naphthalen-1-yl)-2-methylbenzamide] as the molecule, how does the IC50 read?
A: > 10000 nM

Q: For `CCCC(=O)NC12CC(NS(=O)(=O)c3ccc(NC(=O)c4ccccc4C)c4ccccc34)(C1)C2` [Compound 43, N-(4-(N-(3-butyramidobicyclo[1.1.1]pentan-1-yl)sulfamoyl)naphthalen-1-yl)-2-methylbenzamide], which IC50 is on record?
A: > 10000 nM

Q: With `CN1CCN(C(=O)N2CCC(NS(=O)(=O)c3ccc4[nH]c(-c5ccccc5)nc4c3)CC2)CC1` [Compound 44, N-(1-(4-methylpiperazine-1-carbonyl)piperidin-4-yl)-2-phenyl-1H-m benzo[d]imidazole-5-sulfonamide] as the molecule, how does the IC50 read?
A: > 10000 nM

Q: `Cc1ccccc1C(=O)Nc1ccc(S(=O)(=O)NC2CCC(C(=O)N(C)C)CC2)c2ccccc12` (stereo not shown) [Compound 45, N-(4-(N-(4-(dimethylcarbamoyl)cy-clohexyl)sulfamoyl)naph-thalen-1-yl)-2-methylbenzamide] was tested. Which IC50 did it give?
A: 2700 nM

Q: How did the IC50 turn out when `Cc1ccccc1C(=O)Nc1ccc(S(=O)(=O)NC2CCC(C(=O)N3CCN(C)CC3)CC2)c2ccccc12` (stereo not shown) [Compound 46, 2-methyl-N-(4-(N-(4-(4-methylpiperazine-1-carbonyl)cyclohexyl)sul-famoyl)naphthalen-1-yl)benzamide] was run?
A: > 10000 nM

Q: With `Cc1ccccc1C(=O)Nc1ccc(S(=O)(=O)N[C@@H]2CCN3C(=O)CC[C@@H]3C2)c2ccccc12` [Compound 47, 2-methyl-N-(4-(N-((7R,8aR)-3-oxooctahydroindolizin-7-yl)sulfamoyl)naphthalen-1-yl)benzamide] as the molecule, how does the IC50 read?
A: 23 nM

Q: For `Cc1ccccc1C(=O)Nc1ccc(S(=O)(=O)NC(CO)C2CCCCC2)c2ccccc12` (stereo not shown) [Compound 48, N-(4-(N-(1-cyclohexyl-2-hydroxyethyl)sulfamoyl)naphthalen-1-yl)-2-methylbenzamide], which IC50 is on record?
A: 170 nM

Q: With `COC(=O)[C@@H](NS(=O)(=O)c1ccc(NC(=O)c2ccccc2C)c2ccccc12)C1CCCCC1` [Compound 49, (S)-methyl 2-cyclohexyl-2-(4-(2-methylbenzamido)naph-thalene-1-sulfonamido)acetate] as the molecule, how does the IC50 read?
A: 520 nM

Q: Which IC50 does the source give for `COC(=O)[C@H](NS(=O)(=O)c1ccc(NC(=O)c2ccccc2C)c2ccccc12)C1CCCCC1` [Compound 50, (R)-methyl 2-cyclohexyl-2-(4-(2-methylbenzamido)naph-thalene-1-sulfonamido)acetate] here?
A: 12 nM

Q: For `COc1ccccc1C(C)NS(=O)(=O)c1ccc(NC(=O)c2ccccc2C)c2ccccc12` (stereo not shown) [Compound 51, N-(4-(N-(1-(2-methoxyphenyl)ethyl)sul-famoyl)naphthalen-1-yl)-2-methylbenzamide], which IC50 is on record?
A: > 10000 nM

Q: For `Cc1ccccc1C(=O)Nc1ccc(S(=O)(=O)NC2CCc3n[nH]cc3C2)c2ccccc12` (stereo not shown) [Compound 52, 2-methyl-N-(4-(N-(4,5,6,7-tetrahydro-2H-indazol-5-yl)sulfamoyl)naphthalen-1-yl)benzamide], which IC50 is on record?
A: > 10000 nM

Q: Which IC50 does the source give for `Cc1ccccc1C(=O)Nc1ccc(S(=O)(=O)NC2CCOc3ccccc32)cc1` (stereo not shown) [Compound 53, N-(4-(N-(chroman-4-yl)sulfamoyl)phenyl)-2-methylbenzamide] here?
A: > 10000 nM

Q: For `Cc1ccccc1C(=O)Nc1ccc(S(=O)(=O)NC(C)c2cccc(C(=O)O)c2)cc1` (stereo not shown) [Compound 54, 3-(1-(4-(2-methylbenzamido)phe-nylsulfonamido)ethyl) benzoic acid], which IC50 is on record?
A: > 10000 nM

Q: With `Cc1ccccc1C(=O)Nc1ccc(S(=O)(=O)NC(C)c2nccs2)c2ccccc12` (stereo not shown) [Compound 56, 2-methyl-N-(4-(N-(1-(thiazol-2-yl)ethyl)sulfamoyl)naph-thalen-1-yl)benzamide] as the molecule, how does the IC50 read?
A: 2790 nM

Q: For `Cc1ccccc1C(=O)Nc1ccc(S(=O)(=O)NC(C)C2CCCCC2)c2ccccc12` (stereo not shown) [Compound 57, N-(4-(N-(1-cyclohexylethyl)sulfamo-yl)naphthalen-1-yl)-2-methylbenzamide], which IC50 is on record?
A: 3 nM

Q: How did the IC50 turn out when `Cc1ccccc1C(=O)Nc1ccc(S(=O)(=O)N[C@@H](C)C2CCCCC2)c2ccccc12` [Compound 58, (S)-N-(4-(N-(1-cyclohexylethyl)sulfamo-yl)naphthalen-1-yl)-2-methylbenzamide] was run?
A: 12 nM

Q: For `Cc1ccccc1C(=O)Nc1ccc(S(=O)(=O)N[C@H](C)C2CCCCC2)c2ccccc12` [Compound 59, (R)-N-(4-(N-(1-cyclohexylethyl)sulfamo-yl)naphthalen-1-yl)-2-methylbenzamide], which IC50 is on record?
A: 1.6 nM

Q: With `Cc1ccccc1C(=O)Nc1ccc(S(=O)(=O)NC(C)C2CCN(C(=O)OC(C)(C)C)CC2)c2ccccc12` (stereo not shown) [Compound 60, tert-butyl 4-(1-(4-(2-methylbenzamido)naph-thalene-1-sulfonamido)ethyl)piper-idine-1-carboxylate] as the molecule, how does the IC50 read?
A: 160 nM

Q: How did the IC50 turn out when `CC(=O)N1CCC(C(C)NS(=O)(=O)c2ccc(NC(=O)c3ccccc3C)c3ccccc23)CC1` (stereo not shown) [Compound 62, N-(4-(N-(1-(1-acetylpiperidin-4-yl)ethyl)sulfamoyl)naph-thalen-1-yl)-2-methylbenzamide] was run?
A: 705 nM

Q: How did the IC50 turn out when `Cc1ccccc1C(=O)Nc1ccc(S(=O)(=O)NC23CC(C2)C3)c2ccccc12` [Compound 63, N-(4-(N-(bicyclo[1.1.1]pentan-1-yl)sulfamoyl)naphthalen-1-yl)-2-methylbenzamide] was run?
A: > 10000 nM

Q: With `CCN(C)C(=O)C12CC(NS(=O)(=O)c3ccc(NC(=O)c4ccccc4C)c4ccccc34)(C1)C2` [Compound 64, N-ethyl-N-methyl-3-(4-(2-methylbenzamido)naph-thalene-1-sulfonamido)bicyclo [1.1.1]pentane-1-carboxamide] as the molecule, how does the IC50 read?
A: > 10000 nM

Q: How did the IC50 turn out when `Cc1ccccc1C(=O)Nc1ccc(S(=O)(=O)NC(C)C2CCN(C(=O)OC(C)(C)C)C2)c2ccccc12` (stereo not shown) [Compound 65, tert-butyl 3-(1-(4-(2-methylbenzamido)naph-thalene-1-sulfonamido)ethyl)pyr-rolidine-1-carboxylate] was run?
A: 1100 nM

Q: How did the IC50 turn out when `Cc1ccccc1C(=O)Nc1ccc(S(=O)(=O)NC(C)C2CCCCN2)c2ccccc12` (stereo not shown) [Compound 69A, 2-methyl-N-(4-(N-(1-(piperidin-2-yl)ethyl)sulfamoyl)naph-thalen-1-yl)benzamide] was run?
A: > 10000 nM

Q: With `Cc1ccccc1C(=O)Nc1ccc(S(=O)(=O)NC(C)c2cccc(NC(=O)OC(C)(C)C)c2)c2ccccc12` (stereo not shown) [Compound 71, tert-butyl (3-(1-(4-(2-methylbenzamido)naph-thalene-1-sulfonamido)ethyl)phe-nyl)carbamate] as the molecule, how does the IC50 read?
A: 147 nM

Q: With `Cc1ccccc1C(=O)Nc1ccc(S(=O)(=O)NC(C)c2cccc(N)c2)c2ccccc12` (stereo not shown) [Compound 72A, N-(4-(N-(1-(3-aminophenyl)ethyl)sul-famoyl)naphthalen-1-yl)-2-methylbenzamide hydrochloride] as the molecule, how does the IC50 read?
A: 1140 nM

Q: With `COc1cccc(C(C)NS(=O)(=O)c2ccc(NC(=O)c3ccccc3C)c3ccccc23)c1` (stereo not shown) [Compound 73, N-(4-(N-(1-(3-methoxyphenyl)ethyl)sul-famoyl)naphthalen-1-yl)-2-methylbenzamide] as the molecule, how does the IC50 read?
A: 764 nM

Q: For `Cc1ccccc1C(=O)Nc1ccc(S(=O)(=O)NC(C)CN2CCC(C)CC2)c2ccccc12` (stereo not shown) [Compound 74, 2-methyl-N-(4-(N-(1-(4-methylpiperidin-1-yl)propan-2-yl)sulfamoyl)naphthalen-1-yl)benzamide], which IC50 is on record?
A: 647 nM

Q: For `Cc1ccccc1C(=O)Nc1ccc(S(=O)(=O)NC(C)CC2CCCCC2)c2ccccc12` (stereo not shown) [Compound 75, N-(4-(N-(1-cyclohexylpropan-2-yl)sulfamoyl)naphthalen-1-yl)-2-methylbenzamide], which IC50 is on record?
A: 7.6 nM

Q: How did the IC50 turn out when `Cc1ccccc1C(=O)Nc1ccc(S(=O)(=O)NC(C)C2CCCCCC2)c2ccccc12` (stereo not shown) [Compound 76, N-(4-(N-(1-cycloheptylethyl)sulfamo-yl)naphthalen-1-yl)-2-methylbenzamide] was run?
A: 1.8 nM

Same assay, conditions: read-out: Tango Assay IC50, Inhibition of CCR8 Tango cell in vitro

Q: Which IC50 does the source give for `Cc1ccccc1C(=O)Nc1ccc(S(=O)(=O)NC(C)C2CCNC2)c2ccccc12` (stereo not shown) [Compound 66, 2-methyl-N-(4-(N-(1-(pyrrolidin-3-yl)ethyl)sulfamoyl)naph-thalen-1-yl)benzamide] here?
A: 85 nM

Q: Which IC50 does the source give for `Cc1ccccc1C(=O)Nc1ccc(S(=O)(=O)NC(C)C2CCCCN2)c2ccccc12` (stereo not shown) [Compound 69B, 2-methyl-N-(4-(N-(1-(piperidin-2-yl)ethyl)sulfamoyl)naph-thalen-1-yl)benzamide] here?
A: > 10000 nM
